In paper PMC8766924 (Angewandte Chemie (International ed. in English), 2021):

Experiments:
[1] = target: T1, A^4.67-Y5R (Homo sapiens, UniProt Q15761, V181A); format: cell-based; details: Figure 6C; transiently transfected COS-7
T1 sequence (Q15761 1-445 V181A): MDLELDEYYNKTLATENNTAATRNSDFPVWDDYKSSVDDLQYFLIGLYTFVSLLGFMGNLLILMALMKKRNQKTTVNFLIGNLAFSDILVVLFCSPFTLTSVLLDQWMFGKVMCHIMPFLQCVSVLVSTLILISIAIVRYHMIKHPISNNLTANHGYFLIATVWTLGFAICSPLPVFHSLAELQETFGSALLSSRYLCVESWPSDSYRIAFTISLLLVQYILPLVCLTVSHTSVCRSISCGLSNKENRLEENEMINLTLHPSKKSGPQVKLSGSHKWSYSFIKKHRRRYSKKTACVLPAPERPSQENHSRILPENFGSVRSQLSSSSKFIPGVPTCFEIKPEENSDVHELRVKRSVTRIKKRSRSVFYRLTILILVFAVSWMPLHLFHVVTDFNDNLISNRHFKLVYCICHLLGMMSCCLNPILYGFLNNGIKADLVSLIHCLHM

[2] = tested on: Y5R; details: still binds Y5R but not other Y receptors; cited from earlier work
[3] = tested on: Y5R; test: Calcium flux assay of NPY analogs; format: cell-based; details: Figure 3B-C, at least two independent experiments in triplicates

Row | Substance | Potency loss at wt Y5R compared to NPY [3] [fold] | further results
1 | A^28-NPY: NPY analog carrying Ala at position 28 |  | Potency at A^4.67-Y5R compared to wt NPY [1]: lower potency
2 | T32P-NPY: NPY with Thr32 substituted to Pro |  | Receptor selectivity [2]: selective Y5R agonist
3 | W^36-NPY: NPY with Y^36 substituted by Trp | 2 | 
4 | [Y^36A]-NPY: NPY with Y^36 substituted by Ala | 43 | 
